From patent US10226043B2, “Controlled release biocidal salts” (Nevada Naturals Inc., priority 2005, dated 2019)

How the values were obtained:
[1] = system: bacteria that are part of the background flora of raw meat; experiment: Antimicrobial activity of compounded films (beef loins in heat-sealed package); assay type: cell-based
Experimental: Two beef loins from a slaughterhouse were tested in a heat-sealed package simulating food packaging. The linear low density polyethylene film was compounded with 1% w/w LAE lactate biocidal salt of the invention. The log colony forming units (“CFU”) reduction values for bacteria that are part of the background flora of raw meat for both samples are 42 days indicate that there is a release of the salt of the invention from the polyethylene film to the surrounding beef surfaces.

[2] = system: yeast cultures and A. niger; experiment: Food-grade preservation test (aloe vera gel challenge); assay type: cell-based; conditions: for Log Reduction Values, day 0: day 0, initial challenge 7 logs; for Log Reduction Values, day 0 / Log Reduction Values, day 2 / Log Reduction Values, day 7 / Log Reduction Values, day 14: aloe vera gel pH 4-4.5; for Log Reduction Values, day 0 / Log Reduction Values, day 2 / Log Reduction Values, day 7 / Log Reduction Values, day 14 / Log Reduction Values, day 21 / Log Reduction Values, day 28 / Log Reduction Values, day 35 / Log Reduction Values, day 42: LAE-HCl 1725 ppm, LAE-lactate 1500 ppm, lactic acid 1500 ppm; for Log Reduction Values, day 21: day 21 (re-challenge of 7 logs at day 21); for Log Reduction Values, day 28: day 28 (re-challenges of 7 logs at day 21 and day 28); for Log Reduction Values, day 35: day 35, after the second re-challenge; for Log Reduction Values, day 42: day 42, after two re-challenges
Experimental: Aloe vera gel was prepared as a 50% dilution and dispensed as 20 g per container. Inoculum was prepared as 48 hour yeast cultures in tripticase soy broth and A. niger suspension. The inoculum was pooled and 100 μl added to each container. The preservatives were prepared as 1% solutions and added to each pre-labeled container. The samples were well mixed and stored. Recoveries were carried out at selected intervals (1:10 dilutions plated with sabourad dextrose agar. Pre-labeled plates were incubated at 25-30° C. for 48-72 hours; the pH of the samples was in the range of 4-4.5. The plates were removed from incubation, counted cfu recorded and converted to log reduction values.
Thereafter, re-challenges of 7 logs each were made at day 21 and day 28.

[3] = system: microbes such as bacteria, fungi and yeasts; conditions: general statement, no test described; cited from earlier work
[4] = system: naturally-occurring aerobic bacteria of beef purge; experiment: Beef purge test; assay type: cell-based; conditions: for Avg. CFU/g / % Reduction: 48 hours, refrigerated, 5% w/w (0.5 g in 10 ml purge); for % Reduction: vs control
Experimental: Two beef tenderloins containing a large quantity of purge (i.e., liquid surrounding raw meats; meat soaker pads were used to trap such liquids to the extent possible) were purchased at a local store. The purge was isolated from the packages and transferred to a series of test tubes and 10 ml of purge were placed in each test tube. To the test tubes was added 0.5 g of either LAE hydrochloride or LAE mono-laurate salts. The samples were mixed in a vortex mixer and serial dilutions were then plated on petrifilm for readings at time zero. The test tubes were then placed in the refrigerator and were again plated at 24 hours and 48 hours. The beef purge contained naturally-occurring aerobic bacteria. The goal is to have >99% reduction of the bacteria after 48 hours. LAE hydrochloride was tested at 0.5 g/10 ml w/v. […] Note that LAE-monolaurate contains about 66% of the active LAE cation.

Bacillus subtilus = experiment: Antimicrobial activity of LAE laurate, minimum inhibitory concentration on inoculated soya agar plates; assay type: cell-based; conditions: Bacillus subtilus (Gram positive), 37° C., 48 hours, salt dissolved in 1,2-pentanediol
Experimental: (§1) 0.1 g of N^α-lauroyl-L-arginine ethyl ester laurate (LAE laurate) was dissolved in 100 g of 1,2-pentanediol so as to provide a solution containing 1,000 parts per million of the salt. The solution was then applied to soya agar plates which had been previously inoculated with the bacteria indicated below and subsequently incubated at 37° C. for 48 hours.

Enterobacter aerogenes = experiment: as above; assay type: cell-based; conditions: Enterobacter aerogenes (Gram negative), 37° C., 48 hours, salt dissolved in 1,2-pentanediol
Experimental: as §1

Staphylococcus aureus = experiment: as above; assay type: cell-based; conditions: Staphylococcus aureus (Gram positive), 37° C., 48 hours, salt dissolved in 1,2-pentanediol
Experimental: as §1

[5] = day 42, film compounded with 1% w/w salt, vs. control

CC(O)C(=O)O.CCCCCCCCCCCC(=O)N[C@@H](CCCNC(=N)N)C(=O)OCC [LAE lactate]
Log CFU/g, day 7 ([1]; day 7, beef loin in linear low density polyethylene film compounded with 1% w/w salt): 2.31 Log CFU/g
Log CFU/g, day 14 ([1]; day 14, beef loin in linear low density polyethylene film compounded with 1% w/w salt): 3.68 Log CFU/g
Log CFU/g, day 21 ([1]; day 21, beef loin in linear low density polyethylene film compounded with 1% w/w salt): 3.97 Log CFU/g
Log CFU/g, day 28 ([1]; day 28, beef loin in linear low density polyethylene film compounded with 1% w/w salt): 5.32 Log CFU/g
Log CFU/g, day 42 ([1]; day 42, beef loin in linear low density polyethylene film compounded with 1% w/w salt): 5.57 Log CFU/g
Day 42 % reduction vs. control [1, 5]: 97.9%
Day 42 log reduction vs. control [1, 5]: 1.67
preservation compared with LAE-HCl ([2]; after the two re-challenges): superior to LAE-HCl
Log Reduction Values, day 0 [2]: 0
Log Reduction Values, day 2 [2]: 3.7
Log Reduction Values, day 7 [2]: 6.0
Log Reduction Values, day 14 [2]: 6.0
Log Reduction Values, day 21 [2]: 6.0
Log Reduction Values, day 28 [2]: 3.9
Log Reduction Values, day 35 [2]: 4.0
Log Reduction Values, day 42 [2]: 0.7

CCCCCCCCCCCC(=O)N[C@@H](CCCNC(=N)N)C(=O)OCC [LAE, N^α-lauroyl-L-arginine ethyl ester]
biocidal ions needed to inhibit or kill microbes [3]: 2-128 ppm

CCCCCCCCCCCC(=O)N[C@@H](CCCN=C(N)N)C(=O)OCC.Cl [LAE-HCl]
Avg. CFU/g [4]: <1.000E+02 CFU/g
% Reduction [4]: 99.999%
Log Reduction Values, day 0 [2]: 0
Log Reduction Values, day 2 [2]: 4.7
Log Reduction Values, day 7 [2]: 6.0
Log Reduction Values, day 14 [2]: 5.8
Log Reduction Values, day 21 [2]: 6.0
Log Reduction Values, day 28 [2]: 1.7
Log Reduction Values, day 42 [2]: 0.0

CC(O)C(=O)O (stereo not drawn) [Lactic acid]
Log Reduction Values, day 2 [2]: 1.0
Log Reduction Values, day 7 [2]: 0.2
Log Reduction Values, day 14 [2]: 0.0
Log Reduction Values, day 35 [2]: 0.0
Log Reduction Values, day 42 [2]: 0.0

[H]/N=C(\N/C(=N/[H])NCCCCCCNC(=N)NC(=N)Nc1ccc(Cl)cc1)Nc1ccc(Cl)cc1 [chlorhexidine]
biocidal ions needed to inhibit or kill microbes [3]: 2-8 ppm

Oc1cc(Cl)ccc1Oc1ccc(Cl)cc1Cl [triclosan]
biocidal ions needed to inhibit or kill microbes [3]: 2-40 ppm

N^α-lauroyl-L-arginine ethyl ester laurate [LAE laurate]
Minimum Inhibitory Concentration (Bacillus subtilus): <25 ppm
Minimum Inhibitory Concentration (Enterobacter aerogenes): <45 ppm
Minimum Inhibitory Concentration (Staphylococcus aureus): <40 ppm
Avg. CFU/g [4]: 2.82E+03 CFU/g
% Reduction [4]: 99.96%
performance compared with LAE-HCl ([4]; after 48 hours, based on the test requirements (>99% reduction)): performed as well as LAE-HCl
